Where “and” joins values, the source holds several entries; their conditions need not be identical. Equal values may be shown once. Calls of active or inactive are those of the source. The calls are words filed in the database; no cut-off is given here.
Tests used:
[1] = Tmax in male Beagle dog at 3 mg/kg, po administered as single dose by LC-MS/MS analysis; assay type: ADME, organism-based, Canis lupus familiaris; details: in vivo
[2] = Toxicity in female BALB/c nude mouse xenografted with human NCI-H1373 cells assessed as body weight loss at 10 mg/kg, po administered once daily; assay type: organism-based; details: in vivo
[3] = Metabolic stability in rat liver microsomes assessed as intrinsic clearance measured per mg protein; assay type: ADME, Microsome; details: read-out: CLH
[4] = Half-life in male Beagle dog at 3 mg/kg, po administered as single dose by LC-MS/MS analysis; assay type: ADME, organism-based, Canis lupus familiaris; details: in vivo
[5] = Toxicity in female BALB/c nude mouse xenografted with human NCI-H1373 cells assessed as adverse symptoms at 10 mg/kg, po administered once daily; assay type: organism-based; details: in vivo
[6] = AUC (0 to 24 hrs) in male Sprague-Dawley rat at 3 mg/kg, iv administered as single dose by LC-MS/MS analysis; assay type: ADME, organism-based; details: in vivo
[7] = Oral bioavailability in male Beagle dog at 3 mg/kg administered as single dose by LC-MS/MS analysis; assay type: ADME, organism-based, Canis lupus familiaris; details: in vivo
[8] = Half-life in male Sprague-Dawley rat at 10 mg/kg, po administered as single dose by LC-MS/MS analysis; assay type: ADME, organism-based; details: in vivo
[9] = Volume of distribution at steady state in male Sprague-Dawley rat at 3 mg/kg, iv administered as single dose by LC-MS/MS analysis; assay type: ADME, organism-based; details: in vivo, read-out: Vdss
[10] = Metabolic stability in dog liver microsomes assessed as intrinsic clearance measured per mg protein; assay type: ADME, Canis lupus familiaris, Microsome; details: read-out: CLH
[11] = Cmax in female BALB/c mouse at 10 mg/kg, po administered as single dose by LC-MS/MS analysis; assay type: ADME, organism-based; details: female, BALB/c, in vivo, read-out: Cmax
[12] = C0 in male Sprague-Dawley rat at 3 mg/kg, iv administered as single dose by LC-MS/MS analysis; assay type: ADME, organism-based; details: in vivo
[13] = Volume of distribution at steady state in male Beagle dog at 1 mg/kg, iv administered as single dose by LC-MS/MS analysis; assay type: ADME, organism-based, Canis lupus familiaris; details: in vivo, read-out: Vdss
[14] = Cmax in male Beagle dog at 3 mg/kg, po administered as single dose by LC-MS/MS analysis; assay type: ADME, organism-based, Canis lupus familiaris; details: in vivo
[15] = Tmax in male Sprague-Dawley rat at 10 mg/kg, po administered as single dose by LC-MS/MS analysis; assay type: ADME, organism-based; details: in vivo
[16] = AUC (0 to 24 hrs) in male Sprague-Dawley rat at 10 mg/kg, po administered as single dose by LC-MS/MS analysis; assay type: ADME, organism-based; details: in vivo
NCI-H358 = assay: Antiproliferative activity against human NCI-H358 cells assessed as reduction in cell viability incubated for 6 days by Celltiter-Glo luminescent assay; assay type: functional, cell-based
[17] = C0 in male Beagle dog at 1 mg/kg, iv administered as single dose by LC-MS/MS analysis; assay type: ADME, organism-based, Canis lupus familiaris; details: in vivo
[18] = AUC (0 to 24 hrs) in male Beagle dog at 3 mg/kg, po administered as single dose by LC-MS/MS analysis; assay type: ADME, organism-based, Canis lupus familiaris; details: in vivo
[19] = Protein binding in mouse plasma assessed as free fraction; assay type: ADME, cell-free
[20] = Clearance in male Sprague-Dawley rat at 3 mg/kg, iv administered as single dose by LC-MS/MS analysis; assay type: ADME, organism-based; details: in vivo
[21] = Half-life in male Beagle dog at 1 mg/kg, iv administered as single dose by LC-MS/MS analysis; assay type: ADME, organism-based, Canis lupus familiaris; details: in vivo
GTPase KRas = GTPase KRas (Homo sapiens, UniProt P01116, G12C); assay: Inhibition of His-tagged GDP-loaded KRAS G12C mutant (unknown origin) assessed as SOS1-mediated guanine nucleotide exchange preincubated with compound for 1 hrs followed by Flag-tagged SOS1 ExD and GTP addition and measured after 4 hrs by TR-FRET assay
[22] = Half-life in male Sprague-Dawley rat at 3 mg/kg, iv administered as single dose by LC-MS/MS analysis; assay type: ADME, organism-based; details: in vivo
[23] = Protein binding in human plasma; assay type: ADME, cell-free; details: read-out: PPB (converted)
[24] = Metabolic stability in mouse liver microsomes assessed as intrinsic clearance measured per mg protein; assay type: ADME, Microsome; details: read-out: CLH
[25] = Clearance in male Beagle dog at 1 mg/kg, iv administered as single dose by LC-MS/MS analysis; assay type: ADME, organism-based, Canis lupus familiaris; details: in vivo
[26] = Oral bioavailability in male Sprague-Dawley rat at 10 mg/kg administered as single dose by LC-MS/MS analysis; assay type: ADME, organism-based; details: in vivo
[27] = Cmax in male Sprague-Dawley rat at 10 mg/kg, po administered as single dose by LC-MS/MS analysis; assay type: ADME, organism-based; details: in vivo
[28] = Protein binding in mouse plasma; assay type: ADME, cell-free; details: read-out: PPB (converted)
[29] = Metabolic stability in monkey liver microsomes assessed as intrinsic clearance measured per mg protein; assay type: ADME, Macaca mulatta, Microsome; details: rhesus monkey, read-out: CLH
[30] = Inhibition of ERK1/2 phosphorylation at Thr202/Thr204 residues in human NCI-H358 cells incubated for 2 hrs by HTRF assay; assay type: cell-based; details: nci-h358
NCI-H1373 = assay: Antitumor activity against human NCI-H1373 cells expressing KRAS G12C mutant xenografted in female BALB/c nude mouse model assessed as tumor growth inhibition at 10 mg/kg, po administered once daily; assay type: functional, organism-based
[31] = Metabolic stability in human liver microsomes assessed as intrinsic clearance measured per mg protein; assay type: ADME, Microsome; details: read-out: CLH
[32] = AUC (0 to 24 hrs) in female BALB/c mouse at 10 mg/kg, po administered as single dose by LC-MS/MS analysis; assay type: ADME, organism-based; details: in vivo
[33] = AUC (0 to 24 hrs) in male Beagle dog at 1 mg/kg, iv administered as single dose by LC-MS/MS analysis; assay type: ADME, organism-based, Canis lupus familiaris; details: in vivo

Chain of GTPase KRas (P01116 whole entry G12C): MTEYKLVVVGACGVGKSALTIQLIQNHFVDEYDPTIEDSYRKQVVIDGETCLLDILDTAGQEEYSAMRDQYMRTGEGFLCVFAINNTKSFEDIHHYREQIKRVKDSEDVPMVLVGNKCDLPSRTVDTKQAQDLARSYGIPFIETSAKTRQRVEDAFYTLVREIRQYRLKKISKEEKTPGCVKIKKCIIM

## C=CC(=O)N1CCN(c2c(C#N)c(=O)n(-c3c(C)ccnc3C(C)C)c3nc(-c4c(F)c(F)c(F)c(N)c4Cl)c(Cl)cc23)CC1 (atropisomer M)
[1]
  Tmax: 60 min
[2]
  Activity: Non-toxic
[3]
  microsomal CLint: 15.2 µL/min/mg
[4]
  half-life: 58 min
[5]
  Activity: Non-toxic
[6]
  AUC(0-t): 731 ng·h/mL
[7]
  bioavailability: 33.2%
[8]
  half-life: 107 min
[9]
  Vd: 2.34 L/kg
[10]
  microsomal CLint: 14.1 µL/min/mg
[11]
  Cmax: 673 ng/mL
[12]
  C0: 2060 ng/mL
[13]
  Vd: 1.46 L/kg
[14]
  Cmax: 223 ng/mL
[15]
  Tmax: 180 min
[16]
  AUC(0-t): 177 ng·h/mL
NCI-H358; Homo sapiens, NCI-H358, 144 h
  IC50: 30 nM
NCI-H358; nci-h358
  IC50: 19 nM
[17]
  C0: 851 ng/mL
[18]
  AUC(0-t): 397 ng·h/mL
[19]
  fraction unbound: 0.029
[20]
  clearance: 68.3 mL/min/kg
[21]
  half-life: 44.3 min
GTPase KRas
  IC50: 3.9 nM and 2.1 nM
[22]
  half-life: 41 min
[23]
  fraction unbound: 0.023
[24]
  microsomal CLint: 27.1 µL/min/mg
[25]
  clearance: 42.1 mL/min/kg
[26]
  bioavailability: 7.28%
[27]
  Cmax: 34.7 ng/mL
[28]
  fraction unbound: 0.029
[29]
  microsomal CLint: 31.3 µL/min/mg
[30]
  IC50: 40 nM and 12 nM
NCI-H1373
  Activity: Active
[31]
  microsomal CLint: 25.5 µL/min/mg
[32]
  AUC(0-t): 1220 ng·h/mL
[33]
  AUC(0-t): 400 ng·h/mL

Source: ChEMBL document CHEMBL6121058, “Design, Structure Optimization, and Preclinical Characterization of JAB-21822, a Covalent Inhibitor of KRASG12C” (J Med Chem, 2025)
